Laboratory results reported in patent US9738902B2, “Modified PYR/PYL receptors activated by ligands” (priority 2013, dated 2017).

How the values were obtained:
Assay in all cases: Y2H Pocket Library Screen (HAB1, X-gal)
Assay type in all cases: cell-based
PYR1 K59R E141L = biological target: T1, PYR1 K59R E141L (Arabidopsis thaliana, UniProt O49686, E141L/K59R)
T1 construct: expressed in transfected cells; host or cells: S. cerevisiae Y190 two-hybrid reporter strain
In short: (§1)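 Two-day, 30° C yeast two-hybrid spot assay: Y190 carrying PYR1 mutant and pACT-HAB1 on selective SD (–Leu, –Trp) plus 100 μM compound, scored by β-galactosidase X-gal stain of chloroform-lysed colonies.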

PYR1 K59R I110M = biological target: T2, PYR1 K59R I110M (Arabidopsis thaliana, UniProt O49686, I110M/K59R)
T2 construct: expressed in transfected cells; host or cells: S. cerevisiae Y190 two-hybrid reporter strain
T2 sequence (O49686 whole entry K59R/I110M): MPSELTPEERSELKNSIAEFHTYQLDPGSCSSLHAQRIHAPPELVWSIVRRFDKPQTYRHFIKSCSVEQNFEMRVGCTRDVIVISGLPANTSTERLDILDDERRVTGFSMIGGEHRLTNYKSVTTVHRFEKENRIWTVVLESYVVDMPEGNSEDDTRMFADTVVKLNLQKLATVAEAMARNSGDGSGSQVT
T2 sequence (Q9CAJ0 23-511 partner): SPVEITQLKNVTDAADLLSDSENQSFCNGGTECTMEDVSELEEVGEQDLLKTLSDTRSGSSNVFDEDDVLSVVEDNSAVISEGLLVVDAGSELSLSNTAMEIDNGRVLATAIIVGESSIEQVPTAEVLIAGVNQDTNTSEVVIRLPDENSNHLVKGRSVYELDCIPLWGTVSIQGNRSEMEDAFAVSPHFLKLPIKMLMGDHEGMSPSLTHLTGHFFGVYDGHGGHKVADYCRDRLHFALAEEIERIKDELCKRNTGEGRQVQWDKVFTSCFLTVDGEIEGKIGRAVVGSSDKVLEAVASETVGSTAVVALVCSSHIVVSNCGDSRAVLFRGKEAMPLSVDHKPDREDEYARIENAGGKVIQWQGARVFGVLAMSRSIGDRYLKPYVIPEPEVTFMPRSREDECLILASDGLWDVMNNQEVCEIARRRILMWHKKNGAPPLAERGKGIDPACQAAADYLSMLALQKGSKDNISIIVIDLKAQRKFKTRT
In short: as §1

PYR1 K59R A160I = biological target: T3, PYR1 K59R A160I (Arabidopsis thaliana, UniProt O49686, A160I/K59R)
T3 construct: expressed in transfected cells; host or cells: S. cerevisiae Y190
T3 sequence (O49686 whole entry K59R/A160I): as the sequence (O49686 whole entry K59R/I110M) above, with M110I, A160I counted along it
T3 sequence (Q9CAJ0 23-511 partner): as the sequence (Q9CAJ0 23-511 partner) above
In short: as §1

PYR1 K59R V164G = biological target: T4, PYR1 K59R V164G (Arabidopsis thaliana, UniProt O49686, K59R/V164G)
T4 construct: expressed in transfected cells; host or cells: S. cerevisiae Y190
T4 sequence (O49686 whole entry K59R/V164G): as the sequence (O49686 whole entry K59R/I110M) above, with M110I, V164G counted along it
T4 sequence (Q9CAJ0 23-511 partner): as the sequence (Q9CAJ0 23-511 partner) above
In short: as §1

PYR1 K59R N167T = biological target: T5, PYR1 K59R N167T (Arabidopsis thaliana, UniProt O49686, K59R/N167T)
T5 construct: expressed in transfected cells; host or cells: S. cerevisiae Y190 two-hybrid reporter strain
T5 sequence (O49686 whole entry K59R/N167T): as the sequence (O49686 whole entry K59R/I110M) above, with M110I, N167T counted along it
T5 sequence (Q9CAJ0 23-511 partner): as the sequence (Q9CAJ0 23-511 partner) above
In short: as §1

PYR1 K59R A160V = biological target: T6, PYR1 K59R A160V (Arabidopsis thaliana, UniProt O49686, A160V/K59R)
T6 construct: expressed in transfected cells; host or cells: S. cerevisiae Y190
T6 sequence (O49686 whole entry K59R/A160V): as the sequence (O49686 whole entry K59R/I110M) above, with M110I, A160V counted along it
T6 sequence (Q9CAJ0 23-511 partner): as the sequence (Q9CAJ0 23-511 partner) above
In short: as §1

PYR1 K59R V164Q = biological target: T7, PYR1 K59R V164Q (Arabidopsis thaliana, UniProt O49686, K59R/V164Q)
T7 construct: expressed in transfected cells; host or cells: S. cerevisiae Y190 two-hybrid reporter strain
T7 sequence (O49686 whole entry K59R/V164Q): as the sequence (O49686 whole entry K59R/I110M) above, with M110I, V164Q counted along it
T7 sequence (Q9CAJ0 23-511 partner): as the sequence (Q9CAJ0 23-511 partner) above
In short: as §1

PYR1 K59R A160Y = biological target: T8, PYR1 K59R A160Y (Arabidopsis thaliana, UniProt O49686, A160Y/K59R)
T8 construct: expressed in transfected cells; host or cells: S. cerevisiae Y190
T8 sequence (O49686 whole entry K59R/A160Y): as the sequence (O49686 whole entry K59R/I110M) above, with M110I, A160Y counted along it
T8 sequence (Q9CAJ0 23-511 partner): as the sequence (Q9CAJ0 23-511 partner) above
In short: as §1

PYR1 K59R V164L = biological target: T9, PYR1 K59R V164L (Arabidopsis thaliana, UniProt O49686, K59R/V164L)
T9 construct: expressed in transfected cells; host or cells: S. cerevisiae Y190
T9 sequence (O49686 whole entry K59R/V164L): as the sequence (O49686 whole entry K59R/I110M) above, with M110I, V164L counted along it
T9 sequence (Q9CAJ0 23-511 partner): as the sequence (Q9CAJ0 23-511 partner) above
In short: as §1

PYR1 K59R E141F = biological target: T10, PYR1 K59R E141F (Arabidopsis thaliana, UniProt O49686, E141F/K59R)
T10 construct: expressed in transfected cells; host or cells: S. cerevisiae Y190 two-hybrid reporter strain
T10 sequence (O49686 whole entry K59R/E141F): as the sequence (O49686 whole entry K59R/I110M) above, with M110I, E141F counted along it
T10 sequence (Q9CAJ0 23-511 partner): as the sequence (Q9CAJ0 23-511 partner) above
In short: as §1

PYR1 K59R V164H = biological target: T11, PYR1 K59R V164H (Arabidopsis thaliana, UniProt O49686, K59R/V164H)
T11 construct: expressed in transfected cells; host or cells: S. cerevisiae Y190
T11 sequence (O49686 whole entry K59R/V164H): as the sequence (O49686 whole entry K59R/I110M) above, with M110I, V164H counted along it
T11 sequence (Q9CAJ0 23-511 partner): as the sequence (Q9CAJ0 23-511 partner) above
In short: as §1

PYR1 K59R V164Y = biological target: T12, PYR1 K59R V164Y (Arabidopsis thaliana, UniProt O49686, K59R/V164Y)
T12 construct: expressed in transfected cells; host or cells: S. cerevisiae Y190 two-hybrid reporter strain
T12 sequence (O49686 whole entry K59R/V164Y): as the sequence (O49686 whole entry K59R/I110M) above, with M110I, V164Y counted along it
T12 sequence (Q9CAJ0 23-511, stated change not applied, further chain): as the sequence (Q9CAJ0 23-511 partner) above
In short: as §1

PYR1 K59R T162K = biological target: T13, PYR1 K59R T162K (Arabidopsis thaliana, UniProt O49686, K59R/T162K)
T13 construct: expressed in transfected cells; host or cells: S. cerevisiae Y190
T13 sequence (O49686 whole entry K59R/T162K): as the sequence (O49686 whole entry K59R/I110M) above, with M110I, T162K counted along it
T13 sequence (Q9CAJ0 23-511, further chain): as the sequence (Q9CAJ0 23-511 partner) above
In short: as §1

PYR1 K59R V164F = biological target: T14, PYR1 K59R V164F (Arabidopsis thaliana, UniProt O49686, K59R/V164F)
T14 construct: expressed in transfected cells; host or cells: S. cerevisiae Y190
T14 sequence (O49686 whole entry K59R/V164F): as the sequence (O49686 whole entry K59R/I110M) above, with M110I, V164F counted along it
T14 sequence (Q9CAJ0 23-511 partner): as the sequence (Q9CAJ0 23-511 partner) above
In short: as §1

PYR1 K59R V164K = biological target: T15, PYR1 K59R V164K (Arabidopsis thaliana, UniProt O49686, K59R/V164K)
T15 construct: expressed in transfected cells; host or cells: S. cerevisiae Y190
T15 sequence (O49686 whole entry K59R/V164K): as the sequence (O49686 whole entry K59R/I110M) above, with M110I, V164K counted along it
T15 sequence (Q9CAJ0 23-511, stated change not applied, further chain): as the sequence (Q9CAJ0 23-511 partner) above
In short: as §1

PYR1 K59R V83L = biological target: T16, PYR1 K59R V83L (Arabidopsis thaliana, UniProt O49686, K59R/V83L)
T16 construct: expressed in transfected cells; host or cells: S. cerevisiae Y190 yeast two-hybrid reporter strain
T16 sequence (O49686 whole entry K59R/V83L): as the sequence (O49686 whole entry K59R/I110M) above, with V83L, M110I counted along it
T16 sequence (Q9CAJ0 23-511, further chain): as the sequence (Q9CAJ0 23-511 partner) above
In short: as §1

PYR1 K59R F108V = biological target: T17, PYR1 K59R F108V (Arabidopsis thaliana, UniProt O49686, F108V/K59R)
T17 construct: expressed in transfected cells; host or cells: S. cerevisiae Y190 yeast two-hybrid reporter strain
T17 sequence (O49686 whole entry K59R/F108V): as the sequence (O49686 whole entry K59R/I110M) above, with F108V, M110I counted along it
T17 sequence (Q9CAJ0 23-511 partner): as the sequence (Q9CAJ0 23-511 partner) above
In short: as §1

PYR1 K59R F108S = biological target: T18, PYR1 K59R F108S (Arabidopsis thaliana, UniProt O49686, F108S/K59R)
T18 construct: expressed in transfected cells; host or cells: S. cerevisiae Y190 yeast two-hybrid reporter strain
T18 sequence (O49686 whole entry K59R/F108S): as the sequence (O49686 whole entry K59R/I110M) above, with F108S, M110I counted along it
T18 sequence (Q9CAJ0 23-511 partner): as the sequence (Q9CAJ0 23-511 partner) above
In short: as §1

PYR1 K59R F108G = biological target: T19, PYR1 K59R F108G (Arabidopsis thaliana, UniProt O49686, F108G/K59R)
T19 construct: expressed in transfected cells; host or cells: S. cerevisiae Y190 yeast two-hybrid reporter strain
T19 sequence (O49686 whole entry K59R/F108G): as the sequence (O49686 whole entry K59R/I110M) above, with F108G, M110I counted along it
T19 sequence (Q9CAJ0 23-511 partner): as the sequence (Q9CAJ0 23-511 partner) above
In short: as §1

PYR1 K59R F159T = biological target: T20, PYR1 K59R F159T (Arabidopsis thaliana, UniProt O49686, F159T/K59R)
T20 construct: expressed in transfected cells; host or cells: S. cerevisiae Y190
T20 sequence (Q9CAJ0 23-511): as the sequence (Q9CAJ0 23-511 partner) above
T20 sequence (O49686 whole entry K59R/F159T): as the sequence (O49686 whole entry K59R/I110M) above, with M110I, F159T counted along it
In short: as §1

PYR1 K59R F108C = biological target: T21, PYR1 K59R F108C (Arabidopsis thaliana, UniProt O49686, F108C/K59R)
T21 construct: expressed in transfected cells; host or cells: S. cerevisiae Y190 yeast two-hybrid reporter strain
T21 sequence (O49686 whole entry K59R/F108C): as the sequence (O49686 whole entry K59R/I110M) above, with F108C, M110I counted along it
T21 sequence (Q9CAJ0 23-511 partner): as the sequence (Q9CAJ0 23-511 partner) above
In short: as §1

PYR1 K59R F159M = biological target: T22, PYR1 K59R F159M (Arabidopsis thaliana, UniProt O49686, F159M/K59R)
T22 construct: expressed in transfected cells; host or cells: S. cerevisiae Y190
T22 sequence (O49686 whole entry K59R/F159M): as the sequence (O49686 whole entry K59R/I110M) above, with M110I, F159M counted along it
T22 sequence (Q9CAJ0 23-511, further chain): as the sequence (Q9CAJ0 23-511 partner) above
In short: as §1

PYR1 K59R F159A = biological target: T23, PYR1 K59R F159A (Arabidopsis thaliana, UniProt O49686, F159A/K59R)
T23 construct: expressed in transfected cells; host or cells: S. cerevisiae Y190 two-hybrid reporter strain
T23 sequence (Q9CAJ0 23-511): as the sequence (Q9CAJ0 23-511 partner) above
T23 sequence (O49686 whole entry K59R/F159A): as the sequence (O49686 whole entry K59R/I110M) above, with M110I, F159A counted along it
In short: as §1

Measured: Threshold

T1 sequence (O49686 whole entry K59R/E141L): as the sequence (O49686 whole entry K59R/I110M) above, with M110I, E141L counted along it
T1 sequence (Q9CAJ0 23-511 partner): as the sequence (Q9CAJ0 23-511 partner) above

N#Cc1c(Cl)cccc1Cl [Dichlobenil, dichlobenil]
not listed: PYR1 K59R F108V | PYR1 K59R F108S | PYR1 K59R F108G | PYR1 K59R F159T | PYR1 K59R F108C | PYR1 K59R F159M | PYR1 K59R F159A
100 µM: all other assays above

C#CCOc1ccc(CCNC(=O)C(OCC#C)c2ccc(Cl)cc2)cc1OC (centres unmarked) [Mandipropamid, mandipropamid]
100 µM: PYR1 K59R F108V | PYR1 K59R F108S | PYR1 K59R F108G | PYR1 K59R F159T | PYR1 K59R F108C | PYR1 K59R F159M | PYR1 K59R F159A
